Source: the NIST ThermoML archive (doi:10.1021/je8001688)
± gives the expanded uncertainty stated by the source.

conditions: 298.15 K; 101.33 kPa; Liquid; Vibrating tube method

Row | Structure (SMILES) | mass density [kg/m3]
1 | OCC(F)(F)F [2,2,2-trifluoroethanol] | 1382.4 ± 0.6
2 | C1CCCCC1 [cyclohexane] | 774 ± 0.5
3 | CCCCCCC [heptane] | 680 ± 0.5
4 | CO [methanol] | 787 ± 0.5
5 | CC(C)O [propan-2-ol] | 781.4 ± 0.5
